Values of other authors as cited in patent US8404645B2, “Stable formulations of amylin and its analogues” (Novo Nordisk AS, priority 2007, dated 2013).
Where no end group is shown, it is not given here.

Details: treated test animals; provoking marked hyperlactemia followed by hyperglycemia
In the case of Arg18 Pro25 Pro28-h-amylin, the “Amylin activity in vivo” value is listed as “show amylin activity in vivo”. For Arg18 Pro25 Pro 28-des-Lys1-h-amylin, the “Amylin activity in vivo” value is listed as “show amylin activity in vivo”. In the case of Pro25 Val26 Pro 28 Pro29-h-amylin, the “Amylin activity in vivo” value is listed as “show amylin activity in vivo”. For “Pro28-h-amylin (KCNTATCATQRLANFLVHSSNNFGAILPSTNVGSNTY; ends and bridges not checked; cysteine pairing not given here; UniProt P10997 34-70, looked up, variant S28P) [human amylin analog, Pro at position 28]”, the “Amylin activity in vivo” value is given as “show amylin activity in vivo”. For des-Lys1-h-amylin, the “Amylin activity in vivo” value is given as “show amylin activity in vivo”.
